From EP3167873A1, “AQUEOUS SOLUTION OF CONDENSATION PRODUCTS OF TAURINAMIDE AND METHYLENE GLYCOL FOR USE AS ANTI-INFECTIVE AGENT IN THE IMPLANTATION OF DEVICES IN CARDIAC SURGERY” (Weis, Christian Edwin, priority 2015, dated 2017)

How the values were obtained:
Infektionen [1] = assay: Clinical use in pacemaker/ICD implantation: device treated and pocket rinsed, infections observed after implantation; format: in vivo, Patienten
Description: Bei der Verwendung wird üblicherweise so vorgegangen, dass die implantierbare Vorrichtung vor der Implantation für die zur Erzielung der gewünschten optimalen antimikrobiellen Wirkung und zur vollständigen Benetzung aller Oberflächen der Vorrichtung erforderliche Zeit, gemäß einer bevorzugten Praxis etwa 20 Minuten, in die Lösung eingelegt wird und danach die implantierbare Vorrichtung, z.B. das Gehäuse eines Herzschrittmachers, mit einem Film der wässrigen Lösung auf ihrer Oberfläche in die vom operierenden Chirurgen vorbereitete Tasche implantiert wird.
Die Tasche wird anschließend mit der restlichen Lösung (ca. 100 ml) gespült.
In einer kardiologischen Station eines akademischen Lehrkrankenhauses, in der routinemäßig und in großer Zahl Patienten Herzschrittmacher implantiert werden, gehörte es zur Praxis, zur Infektionsvermeidung die zu implantierenden Herzschrittmachergehäuse während der Implantation mit einer Lösung von Wasserstoffperoxid zu behandeln, wobei gleichzeitig eine Wundspülung mit Wasserstoffperoxid stattfindet. Dabei kommt es zur Freisetzung von Sauerstoff und starkem Aufschäumen. Trotz der bakteriziden Eigenschaften von verdünntem Wasserstoffperoxid ist die Wirkung der Behandlung als Infektionsprophylaxe bei der Implantation von Geräten nicht verifiziert. […]

[2] = parameters: species or system Patienten; conditions: in vivo
Description: Schrittmacherimplantationen unter erfindungsgemäßer Verwendung einer 2,0 Gew.-%igen wässrigen Taurolidinlösung sind in der nachfolgenden Tabelle 1 tabellarisch erfasst. Die Tabelle gibt dabei die Befunde für 45 Implantationen, einschließlich von 9 Fällen des Austauschs eines Aggregats gegen ein neues, wieder, die im Zeitraum zwischen Februar und September 2015 erfolgten, wobei in allen Fällen die angegebene 2,0 Gew.-%ige wässrige Taurolidinlösung wie beschrieben zur Anwendung kam.

Bakterien = conditions: contact of the solution with microorganisms / contaminated surfaces; cited from earlier work
Biofilme = conditions: cited from earlier work
[3] = system: MRSA (Methicillin-resistenter Staphylococcus aureus); conditions: cited from earlier work
[4] = system: VRE (Vancomycin-resistente Enterokokken); conditions: cited from earlier work
ESKAPE Pathogene = conditions: cited from earlier work
Infektionen [5] = conditions: irrigation (wound rinsing); cited from earlier work

Compound	Infektion (Infektionen [1]; 45 implantations of Tabelle 1 (February to September 2015), 2,0 Gew.-% aqueous Taurolidin solution, observed up to filing date)	Infektionen (Infektionen [1]; pacemaker laid about 20 min in 2,0 Gew.-% Taurolidin solution before implantation, pocket rinsed with rest (ca. 100 ml), comparable number of implantations)	Wundheilung [2]	Kontaktdauer bis zur vollen antibakteriellen Wirkung (Bakterien)	Wirksamkeit gegen Biofilme (Biofilme)	Wirksamkeit [3]	Wirksamkeit [4]	Wirksamkeit (ESKAPE Pathogene)	Verbesserung der Infektionsrate (Infektionen [5])
O=S1(=O)CCN(CN2CCS(=O)(=O)NC2)CN1 [Taurolidin]	bei keinem einzigen der Patienten eine Infektion beobachtet	keinerlei Infektionen beobachtet	gute, ungestörte Wundheilung	≥ 10 Minuten	wirksam	voll wirksam	voll wirksam	voll wirksam	–
Povidon-Iod	–	–	–	–	–	–	–	–	keine nennenswerte Verbesserung beobachtet
